Laboratory results: patent US9868775B2, “Sfrp5-derived peptide fragment and cosmetic composition for skin whitening containing same” (KNU-INDUSTRY COOPERATION FOUNDATION, priority 2014, dated 2018)

How the values were obtained:
tyrosinase [1] = experiment: inhibitory activity against tyrosinase activity in B16F10 (L-DOPA, 490 nm); assay type: cell-based, mouse; details: B16F10, α-MSH, predetermined concentrations, 72 hours, 490 nm (FIG. 4)
Description: B16F10 cells (Korean Cell Line Bank, Seoul) were added to each well of a 24-well plate (5×10^4 cells per well), along with 1 ml of DMEM, and then stabilized through incubating in a 5% CO2 incubator at 37° C. for 24 hours. α-MSH (Sigma Co, MO, USA), a melanocyte-stimulating hormone, was treated to each well, along with the peptide of SEQ ID NO: 8 in predetermined concentrations. After incubating the cells for 72 hours, the proteins were extracted therefrom. The obtained extracts were added to each well of a 96-well plate ([…] per each well) and then treated with a L-dihydroxyphenylalanine (L-DOPA) solution (100 μL) at 37° C. for 2 hours. The groups in which α-MSH (100 nM) and arbutin (0.01%) were respectively treated were used as positive controls. After 2 hours, the pictures thereof were taken and the tyrosinase activities thereof were measured at 490 nm with a microreader.

MITF [2] = experiment: RT-PCR, MITF gene expression in human epidermal melanocytes; assay type: cell-based; details: α-MSH, predetermined concentrations, 72 hours, RT-PCR (FIG. 6)
Description: (§1) Human epidermal melanocytes were added to each well of a 6-well plate (1.5×10^5 cells per well), along with 2 ml of DMEM, and then stabilized through incubating in a 5% CO2 incubator at 37° C. for 24 hours. α-MSH (Sigma Co, MO, USA), a melanocyte-stimulating hormone, was treated to each well, along with the peptide of SEQ ID NO: 8 in predetermined concentrations. After incubating the cells for 72 hours, the total RNAs were extracted therefrom and then cDNAs were synthesized. The cDNA syntheses were carried out with a Reverse Transcription Master premix (Elpisbiotech, Daejeon, Korea). Using each synthesized cDNA as a template, reverse transcription polymerase chain reactions (RT-PCR) were carried out with a ROTOR Q GENE apparatus. Each RT-PCR solution was prepared by mixing 1 μl of cDNA, 10 μl of TOPreal qRT-PCR2X premix (Enzynomics, Daejeon, Korea), 2 μl of primer set (10 pmol) and 7 μl of D.W. The RT-PCR was carried out as follows: initially at 94° C. for 10 minutes; and then at 94° C. for 10 seconds, at 58° C. for 30 seconds, and at 72° C. for 1 minute; 40 cycles.

tyrosinase (TYR) = experiment: RT-PCR, tyrosinase gene expression in human epidermal melanocytes; assay type: cell-based; details: α-MSH, predetermined concentrations, 72 hours, RT-PCR (FIG. 6)
Description: as §1

TRP-1 [3] = experiment: RT-PCR, TRP-1 gene expression in human epidermal melanocytes; assay type: cell-based; details: α-MSH, predetermined concentrations, 72 hours, RT-PCR (FIG. 6)
Description: as §1

TRP-2 [4] = experiment: RT-PCR, TRP-2 gene expression in human epidermal melanocytes; assay type: cell-based; details: α-MSH, predetermined concentrations, 72 hours, RT-PCR (FIG. 6)
Description: as §1

MITF and β-catenin = experiment: in situ proximity ligation assay, binding between MITF and β-catenin; assay type: cell-based, mouse; details: B16F1 cells, similar methods to CREB test (FIG. 1c)
Description: The effects of the peptide fragments of the present invention on the β-catenin activation, which plays a critical role in Wnt signaling pathways, were evaluated using an in situ proximity ligation assay. The evaluation was performed with a commercially available kit, i.e., DUOLINK II in situ kit from Olink Bioscience, Sweden.
The mouse melanoma cell line B16F1 cells (Korean Cell Line Bank, Seoul) were added to 1 ml of DMEM in each well of a 24-well plate (5×10^4 cells per well), each well having a 12 mm glass in the bottom thereof. The cells were then stabilized through incubating in a 5% CO2 incubator at 37° C. for 24 hours. α-MSH (Sigma Co, MO, USA), a melanocyte-stimulating hormone (0.1 μM), and the peptide fragments of the present invention (1 μM) were treated to each well. The cells were cultured in a 5% CO2 incubator at 37° C. for 24 hours and then fixed with 4% paraformaldehyde. After a drop of the blocking solution was added to the cells on the 12 mm glass, the cells were then incubated at 37° C. for 30 minutes. Activation of the Wnt receptor increases the interaction between CREB (cyclic AMP response element-binding) and β-catenin. For determining the interaction levels thereof, the cells were treated with an anti-CREB polyclonal antibody (Santa Cruz Co., CA, USA) and an anti-β-catenin mouse monoclonal antibody (Santa Cruz Co., CA, USA) at 37° C. After incubating 30 minutes therefrom, the cells were treated with the PLA probe solution at 37° C. for 1 hour, with the ligation solution for 30 minutes, and then with the amplification solution for 100 minutes. After washing the cells with the washing buffer, the number of the red spots was measured with a confocal microscopy. In FIGS. 1a and 1b, the control means the group of no treatment and the α-MSH means the group treated with only α-MSH (i.e., without peptide treatment).
And also, according to similar methods in the above, we investigated the inhibitory effects of the peptides of SEQ ID NOs: 5, 8, and 9 on the binding between MITF and β-catenin.

β-catenin = experiment: Western blotting, β-catenin expression in human epidermal melanocytes; assay type: cell-based; details: α-MSH, predetermined concentrations, 48 hours (FIG. 2)
Description: (§2) The effects of the peptide fragment of the present invention on the β-catenin expression and the GSK-3 phosphorylation, which plays a critical role in the activation of Wnt signaling pathways, were evaluated using a Western blotting assay. Human epidermal melanocytes (Cascade Biologics, #C-0245C; Portland, Oreg., USA) were added to 2 ml of DMEM in each well of a 6-well microplate (1.5×10^5 cells per well). The cells were then stabilized through incubating in a 5% CO2 incubator at 37° C. for 24 hours. α-MSH (Sigma Co, MO, USA), a melanocyte-stimulating hormone, was treated to each well, along with the peptide fragment of the present invention (the peptide of SEQ ID NO: 8) in predetermined concentrations. After the cells were cultured for 48 hours, the proteins were extracted therefrom. The obtained extracts were subject to the Western blotting assay using an anti-β-catenin antibody (Santa Cruz Co., CA, USA) and an anti-pGSK-3 antibody (Cell SignalingTechnology, MA, USA), so as to measure the levels of β-catenin expression and GSK-3 phosphorylation changes. […] Therefore, it can be seen that the peptide fragments of the present invention can inhibit the Wnt signaling pathways in melanocytes.

GSK-3 = experiment: Western blotting, GSK-3 phosphorylation in human epidermal melanocytes; assay type: cell-based; details: α-MSH, predetermined concentrations, 48 hours (FIG. 2)
Description: as §2

[5] = tested on: mouse melanoma cell line B16F10; experiment: inhibitory activity against melanin formation in B16F10; assay type: cell-based; details: B16F10, α-MSH 100 nM, peptide 0.1, 1, and 10 μM, 24 hours (FIG. 3)
Description: B16F10 cells (Korean Cell Line Bank, Seoul) were added to each well of a 6-well microplate (1.5×10^5 cells per well), along with 2 ml of DMEM, and then incubated in a 5% CO2 incubator at 37° C. for 24 hours. α-MSH (Sigma Co, MO, USA) (100 nM) was treated to each well, along with the peptide of SEQ ID NO: 8 in the final concentrations of 0.1, 1, and 10 μM. The groups in which α-MSH (100 nM) and arbutin (0.01%) were respectively treated were used as positive controls. After additionally incubating the cells for 24 hours, the pictures of each culture ware taken so as to compare the respective levels of melanin formation.

MITF [6] = experiment: Western blotting, MITF protein expression in human epidermal melanocytes; assay type: cell-based; details: α-MSH, predetermined concentrations, 24 hours (FIG. 5)
Description: (§3) We evaluated the effects of the peptide fragment of the present invention on the protein expressions of the melanin-producing enzymes in human epidermal melanocytes, using a Western blotting assay. Human epidermal melanocytes (Cascade Biologics, #C-0245C; Portland, Oreg., USA) were added to each well of a 6-well microplate (1.5×10^5 cells per well), along with 2 ml of DMEM, and then stabilized through incubating in a 5% CO2 incubator at 37° C. for 24 hours. α-MSH (Sigma Co, MO, USA), a melanocyte-stimulating hormone, was treated to each well, along with the peptide fragment of the present invention (the peptide of SEQ ID NO: 8) in predetermined concentrations. After incubating the cells for 24 hours, the proteins were extracted therefrom. The obtained extracts were subject to the Western blotting assay using an anti-MITF antibody (ABcam, Ma, USA), an anti-tyrosinase antibody (Santa Cruz Co., CA, USA), an anti-TRP-1 antibody (Santa Cruz Co., CA, USA), and an anti-TRP-2 antibody (Santa Cruz Co., CA, USA), so as to measure the expression levels of MITF, tyrosinase, TRP-1, and TRP-2.

tyrosinase [7] = experiment: Western blotting, tyrosinase protein expression in human epidermal melanocytes; assay type: cell-based; details: α-MSH, predetermined concentrations, 24 hours (FIG. 5)
Description: as §3

TRP-1 [8] = experiment: Western blotting, TRP-1 protein expression in human epidermal melanocytes; assay type: cell-based; details: α-MSH, predetermined concentrations, 24 hours (FIG. 5)
Description: as §3

TRP-2 [9] = experiment: Western blotting, TRP-2 protein expression in human epidermal melanocytes; assay type: cell-based; details: α-MSH, predetermined concentrations, 24 hours (FIG. 5)
Description: as §3

## α-MSH: a melanocyte-stimulating hormone (Sigma Co, MO, USA), used as stimulant [reference compound]
Tyrosinase [1]
  tyrosinase activity: increased
MITF [2]
  gene expression of MITF: increased
Tyrosinase (TYR)
  gene expression of tyrosinase (TYR): increased
TRP-1 [3]
  gene expression of TRP-1: increased
TRP-2 [4]
  gene expression of TRP-2: increased

## Cys-Glu-Ala-Val (CEAV; Peptide fragment) [SEQ ID NO: 9, Sfrp5-derived peptide fragment]
MITF and β-catenin
  bindings between MITF and β-catenin: significantly decreased

## Lys-Ile-Gly (KIG; Petide fragment) [SEQ ID NO: 5, Sfrp5-derived peptide fragment]
MITF and β-catenin
  bindings between MITF and β-catenin: significantly decreased

## Ala-Gln-Lys (AQK; Petide fragment) [SEQ ID NO: 8, Sfrp5-derived peptide fragment]
MITF and β-catenin
  bindings between MITF and β-catenin: significantly decreased
β-catenin
  level of β-catenin expression: decreased
GSK-3
  level of GSK-3 phosphorylation: decreased
[5]
  melanin formation (brown colors of cell culture): decreased according to the concentrations of the peptide
Tyrosinase [1]
  tyrosinase activity: decreased in concentration-dependent manner
MITF [6]
  expression level of MITF (protein): decreased
Tyrosinase [7]
  expression level of tyrosinase (protein): decreased
TRP-1 [8]
  expression level of TRP-1 (protein): decreased
TRP-2 [9]
  expression level of TRP-2 (protein): decreased
MITF [2]
  gene expression of MITF: decreased in concentration-dependent manner
Tyrosinase (TYR)
  gene expression of tyrosinase (TYR): decreased in concentration-dependent manner
TRP-1 [3]
  gene expression of TRP-1: decreased in concentration-dependent manner
TRP-2 [4]
  gene expression of TRP-2: decreased in concentration-dependent manner
